Article PMC8406298, “Discovery of Fungus-Specific Targets and Inhibitors Using Chemical Phenotyping of Pathogenic Spore Germination” (mBio, 2021)

Assays:
[1] = test system: Cryptococcus yeast (CHY3833 and CHY3836); experiment: Yeast replication secondary screen (OD600); format: cell-based, Cryptococcus neoformans serotype D (deneoformans); details: 10 μM, 12 h at 30°C
Procedure: (ii) Yeast replication. CHY3833 and CHY3836 were each grown in YPD liquid overnight at 30°C to saturation and then resuspended in 0.5× YPD at an OD600 of 0.005. Strains were aliquoted into 384-well plates with inhibitors and grown for 12 h at 30°C at […] before OD600 readings were taken. Compounds that caused a >10% decrease in growth were considered yeast growth inhibitors.

[2] = test system: normal human dermal fibroblasts (NHDF) cells; experiment: Fibroblast cytotoxicity (CellTiter-Glo); format: cell-based; details: 10 µM
Procedure: PrimaPure normal human dermal fibroblasts (NHDF) cells (Genlatis PH10605A) were cultured and passaged in fibroblast growth medium (Genlatis PM116500) according to the manufacturer’s protocol. NHDF cells (1 × 10^3 per well) were plated in a 384-well plate in cell culture medium. The cells were incubated with each compound of interest at 10 μM concentration for 72 h at 37°C and 5% CO2. Following treatment, CellTiter-Glo (Promega) reagent was used to assay ATP-dependent luminescence and thus provide a measure of cell viability. […] For cytotoxicity dose-response curves (Fig. 4C and Fig. 5C), compounds were titrated from 80 μM to 0.5 μM in duplicates.

Row | SMILES | Yeast Inhibition: % Inhibition [1] [%] | Cytotoxicity: Relative Cell Viability (% of Negative Control) [2]
1 | CCn1c(CSc2ccccc2)nc2ccccc21 [compound 2992099] | 59.0 | 99.2 % of Negative Control
2 | FC(F)(F)c1cccc(N2CCN(c3ncnc4sccc34)CC2)c1 [compound 2497352] | 92.5 | 96.2 % of Negative Control
3 | Nc1nc(-c2ccccn2)cs1 [compound 1092459] | 100.0 | 
4 | c1nc(N2CCCCCC2)c2ccsc2n1 [compound 2238990] | 57.0 | 79.6 % of Negative Control
5 | Cc1cc(C)n(-c2nc(CCNC(=O)c3cc(C)oc3C)cs2)n1 [compound 71802096] | 42.7 | 103.6 % of Negative Control
6 | O=C(c1cc2ccccc2s1)N1CCC(c2ccsc2)CC1 [compound 91624614] | -0.5 | 96.6 % of Negative Control
7 | c1ccc(CNc2ncnc3scc(-c4cccs4)c23)nc1 [compound 944383] | 53.4 | 92.9 % of Negative Control
8 | O=S(=O)(Nc1cccc2ccccc12)c1ccc(Cl)cc1 [compound 310131] | 59.8 | 67.0 % of Negative Control
9 | CC(C)Cc1nnc(NC(=O)C(Cl)Cl)s1 [compound 697528] | 71.6 | 96.1 % of Negative Control
10 | O=C(Cn1c(=O)n(Cc2ccncc2)c(=O)c2ncccc21)Nc1ccc(F)c(Cl)c1 [compound 16951979] | 27.1 | 102.8 % of Negative Control
11 | Cc1ccc(-c2nnc(Cn3cnc4ccccc43)o2)cc1 [compound 16456942] | 57.7 | 69.7 % of Negative Control
12 | Nc1nc(COc2ccc3ccccc3c2)cs1 [compound 973573] | 75.7 | 108.1 % of Negative Control
13 | c1ccc(Cn2nnc3c(Sc4ncco4)ncnc32)cc1 [compound 7471335] | 101.6 | 4.1 % of Negative Control
14 | Clc1ccc(OCCSCc2nc3ccccc3[nH]2)cc1 [compound 1589789] | 79.6 | 74.0 % of Negative Control
15 | Cc1ccc(OCCn2c(C)nc3ccccc32)cc1 [compound 790960] | 81.4 | 90.6 % of Negative Control
16 | NC(=O)/C=C/C(=O)Nc1cccc(C(F)(F)F)c1 [compound 707936] | 101.2 | 3.5 % of Negative Control
17 | CCCCc1nnc(NC(=O)c2cc(OC)ncn2)s1 [compound 91628556] | 83.1 | 88.7 % of Negative Control
18 | CCCC(=O)N1CCN(c2nc3c(C)c(Cl)ccc3s2)CC1 [compound 7294823] | 31.5 | 104.9 % of Negative Control
19 | O=C(NC1CCCC1)c1csc(Nc2ccccc2)n1 [compound 30860168] | 82.0 | 93.7 % of Negative Control

Row | SMILES | Yeast Inhibition: % Inhibition [1] [%] | Cytotoxicity: Relative Cell Viability (% of Negative Control) [2]
20 | Nc1nc(-c2ccc(Oc3ccccc3)cc2)cs1 [compound 780598] | 81.0 | 97.5 % of Negative Control
21 | Clc1ccc2nc(SCCc3ccccc3)[nH]c2c1 [compound 955598] | 98.2 | 34.2 % of Negative Control
22 | COC(=O)Nc1nc(CC(=O)N2CCN(c3cccc(Cl)c3Cl)CC2)cs1 [compound 16883840] | 3.5 | 62.6 % of Negative Control
23 | O=C(COC(=O)c1ccc(C2Nc3ccccc3S(=O)(=O)N2)cc1)Nc1cc(F)ccc1F (stereo not drawn) [compound 44117394] | 9.7 | 105.4 % of Negative Control
24 | Clc1ccc2nc(Nc3ccncc3)nc(-c3ccccc3)c2c1 [compound 4714160] | 14.9 | 90.5 % of Negative Control
25 | O=C(Cn1c(=O)n(Cc2cccnc2)c(=O)c2ncccc21)Nc1ccc2c(c1)OCO2 [compound 16951905] | -5.5 | 101.3 % of Negative Control
26 | O=S(=O)(NCC#CCOc1cccc(C(F)(F)F)c1)c1cccs1 [compound 71803055] | 7.0 | 63.8 % of Negative Control
27 | O=C1NC(=S)S/C1=C\c1ccccc1F [compound 1204290] | 71.4 | 92.9 % of Negative Control
28 | O=C(NCc1ccco1)c1sc2ccccc2c1Cl [compound 2049334] | 53.3 | 88.3 % of Negative Control
29 | O=S1(=O)CCC(NC(=S)SCc2ccccc2)C1 (stereo not drawn) [compound 2831154] | 48.2 | 24.3 % of Negative Control
30 | CC(C)=CC(=O)Nc1ccc(OCc2ccccc2)cc1 [compound 731806] | 64.0 | 91.1 % of Negative Control
31 | O=C(CSCc1ccccc1)N1CCC(c2ccsc2)CC1 [compound 71786985] | 11.0 | 101.7 % of Negative Control
32 | CC1CCN(C(=O)COc2ccc(-c3ccccc3)cc2)CC1 [compound 717711] | 28.9 | 90.0 % of Negative Control
33 | Cc1ccc(C)c(S(=O)(=O)n2cnc3ccccc32)c1 [compound 700148] | 59.4 | 84.1 % of Negative Control
34 | Cc1ccn(-c2ccc(N3CCN(C(=O)c4ccccc4Br)CC3)nn2)n1 [compound 25667819] | -7.4 | 101.9 % of Negative Control
35 | NS(=O)(=O)c1ccc(NC(=O)CSC2CC(=O)N(c3ccc(Br)cc3)C2=O)cc1 (stereo not drawn) [compound 2974037] | 90.7 | 102.2 % of Negative Control
36 | S=C(NCc1ccco1)SCc1cn2ccccc2n1 [compound 3377203] | 66.6 | 86.3 % of Negative Control
37 | Cc1ccc(OCCOCC(O)CN2CCN(c3ccc(F)cc3)CC2)cc1C (stereo not drawn) [compound 16804490] | 17.9 | 94.5 % of Negative Control
38 | O=C(NC1CCN(c2nccs2)C1)c1nc2ccccc2s1 (stereo not drawn) [compound 76149097] | 10.4 | 94.5 % of Negative Control
